The conditions of data set [1]: 105° C. From the text: The susceptibility of the peroxycarbonate to heat decomposition can be ascertained from its half life and the foaming temperature thereof.
Data set [2] can be described thus: Foaming decomposition temperature. In kind it is physicochemical.
For data set [3] the following is noted: prior art peroxide, peroxy group in the copolymer; cited from earlier work.
The conditions of data set [4]: prior art peroxide; cited from earlier work.

The source of these data is US4119657A, “Novel peroxycarbonate” (priority 1976, dated 1978).

Like-named read-outs stand apart in the source and are kept apart here.

`C=CCOC(=O)OOC(C)(C)CC(C)(C)C` [1,1,3,3-tetramethylbutylperoxy allyl carbonate] yielded a Half life in data set [1] (solvent benzene) of 1.4 h. This compound came in with a foaming decomposition temperature in data set [2] of 103.5 °C. For `C=C(C)COC(=O)OOC(C)(C)CC(C)(C)C` [1,1,3,3-tetramethylbutylperoxy methallyl carbonate] the same measures were 1.1 h and 106.5 °C. Compound `CC(C)C(=O)OOC(C)(C)C` [t-butyl peroxy isobutyrate, t-butyl peroxyisobutyrate, reference compound] returned a Half life in data set [1] (solvent benzene) of 0.37 h. With `C=CCOC(=O)OOC(C)(C)C` [t-butylperoxy allyl carbonate], the Half life in data set [1] (solvent benzene) is 3.9 h; in data set [1] (solvent toluene) it was 6.9 h. The foaming decomposition temperature in data set [2] came out at 117.5 °C. On to `CC(C)OC(=O)OOC(C)(C)C` [t-butylperoxy isopropyl carbonate, reference compound], for which, in data set [1] (solvent benzene), the Half life was 4.1 h. Consider `C=C(C)COC(=O)OOC(C)(C)C` [t-butylperoxy methallyl carbonate], for which the Half life in data set [1] (solvent benzene) came to 2.9 h; in data set [1] (solvent toluene), 4.9 h. In data set [2], the foaming decomposition temperature came to 117.5 °C. In the case of `C/C=C/C(=O)OOC(C)(C)C` [t-butylperoxycrotonate], the “decomposition activity, in words” value in data set [3] is recorded as “active at low temperature”. For butyl peroxymethacrylate, the “storage stability, in words” value in data set [4] was “not stable during storage”. As for t-hexylperoxy allyl carbonate, the Half life in data set [1] (solvent benzene) was determined as 3.8 h. In addition, the foaming decomposition temperature in data set [2] stood at 107.3 °C.

t-hexylperoxy methallyl carbonate: the Half life in data set [1] (solvent benzene) amounted to 2.9 h. The compound further came in with a foaming decomposition temperature in data set [2] of 115.5 °C.
